Experiment: Phase I trial, combination with carboplatin: adverse events and DLTs
Assay type: in vivo, human
Description: Pts with advanced solid tumors enrolled in 2 sequential parts.
In part A, single pt cohorts received a compound of Formula A-2 once weekly in 21-day cycles with 3+3 dose escalation cohorts being implemented if grade 2 drug-related adverse events (AEs) occurred. […] If a DLT was reported, the cohort was expanded to include 3 additional pts with subsequent dose escalation being permitted if no further DLTs occurred. Paired pre- and post-treatment biopsies from selected pts in part B were assessed for pCHK1 levels by immunohistochemistry. Models based on preclinical and clinical data were used to simulate hematologic toxicities and pCHK1 inhibition for pts treated with a compound of Formula A-2 and CP.

[1] = A-2 120 mg/m^2 + Carboplatin AUC4 (N = 3)
[2] = A-2 120 mg/m^2 + Carboplatin AUC5 (N = 3)
[3] = A-2 240 mg/m2 + Carboplatin AUC 5 (n = 3)
[4] = A-2 240 mg/m^2 + Carboplatin AUC5 (N = 3)
[5] = A-2 + Carboplatin, Total (N = 15)
[6] = A-2 + Carboplatin, Total (N = 19)

CNCc1ccc(-c2cc(-c3nc(-c4ccc(S(=O)(=O)C(C)C)cc4)cnc3N)on2)cc1 [Compound A-2]
1 (febrile: DLTs (Cohort 1: A-2 240 mg/m^2 + Carboplatin AUC 5 mg/mL·min, 3/3 evaluable, febrile neutropenia) | DLTs (Cohort 4: A-2 90 mg/m^2 + Carboplatin AUC 5 mg/mL·min, 10/10 evaluable, febrile neutropenia)
No G3-4 AEs: G3-4 AEs (DL3-4 (120 mg/m^2 + CP AUC 4; 90 mg/m^2 + CP AUC 5))
1 (5.3) n (%): Treatment related adverse event: Hypersensitivity, Grade ≥ 3 [6] | Treatment related adverse event: Thrombocytopenia, Grade ≥ 3 [6]
2 pts: Pts with DLT (Part B, carboplatin day 1, Compound A-2 days 2 and 9, 14 pts) | DLT: grade 3/4 neutropenia (part B, dosage levels B1 and B2)
6: Treatment related adverse event: Fatigue, All [5]
9: Treatment related adverse event: Anemia, All [5]
2: Treatment related adverse event: Anemia, All [2] | Treatment related adverse event: Nausea, All [2] | Treatment related adverse event: Neutropenia, All [2] | Treatment related adverse event: Fatigue, All [4] | Treatment related adverse event: Headache, All [4] | Treatment related adverse event: Neuropathy peripheral, All [4] | Treatment related adverse event: Neutropenia, ≥3 [4] | Treatment related adverse event: Vomiting, All [4] | Treatment related adverse event: Alopecia, All [5] | Treatment related adverse event: Headache, All [5] | Treatment related adverse event: Neuropathy peripheral, All [5] | Treatment related adverse event: Vomiting, All [5]
3: Treatment related adverse event: Anemia, All [4] | Treatment related adverse event: Nausea, All [4] | Treatment related adverse event: Neutropenia, All [4] | Treatment related adverse event: Thrombocytopenia, All [4] | Treatment related adverse event: Flushing, All [5]
4: Treatment related adverse event: Neutropenia, ≥3 [5] | Non-DLT G3-4 AE: neutropenia (DL1-2)
1 (33.3) n (%): Treatment related adverse event: Flushing, All Grades [3] | Treatment related adverse event: Hypersensitivity, All Grades [3] | Treatment related adverse event: Pruritus, All Grades [3] | Treatment related adverse event: Thrombocytopenia, Grade ≥ 3 [3]
1: Treatment related adverse event: Fatigue, All [2] | Treatment related adverse event: Flushing, All [2] | Treatment related adverse event: Flushing, ≥3 [2] | Treatment related adverse event: Neutropenia, ≥3 [2] | Treatment related adverse event: Thrombocytopenia, All [2] | Treatment related adverse event: Flushing, All [4] | Treatment related adverse event: Hypertension, All [4] | Treatment related adverse event: Hypertension, ≥3 [4] | Treatment related adverse event: Respiratory tract infection, All [4] | Treatment related adverse event: Respiratory tract infection, ≥3 [4] | Treatment related adverse event: Thrombocytopenia, ≥3 [4] | Treatment related adverse event: Flushing, ≥3 [5] | Treatment related adverse event: Hypertension, All [5] | Treatment related adverse event: Hypertension, ≥3 [5] | Treatment related adverse event: Respiratory tract infection, All [5] | Treatment related adverse event: Respiratory tract infection, ≥3 [5] | Treatment related adverse event: Thrombocytopenia, ≥3 [5] | DLT: G4 neutropenia and fever (DL1: Compound A-2 240 mg/m^2 + CP AUC 5 mg/mL·min (n=3)) | Non-DLT G3-4 AE: thrombocytopenia (DL2) | DLT: G3 hypersensitivity (DL2: Compound A-2 120 mg/m^2 + CP AUC 5 mg/mL·min (n=3))
0 n (%): Treatment related adverse event: Alopecia, All Grades [3] | Treatment related adverse event: Alopecia, Grade ≥ 3 [3] | Treatment related adverse event: Anemia, Grade ≥ 3 [3] | Treatment related adverse event: Fatigue, Grade ≥ 3 [3] | Treatment related adverse event: Flushing, Grade ≥ 3 [3] | Treatment related adverse event: Headache, Grade ≥ 3 [3] | Treatment related adverse event: Hypersensitivity, Grade ≥ 3 [3] | Treatment related adverse event: Infusion related reaction, All Grades [3] | Treatment related adverse event: Infusion related reaction, Grade ≥ 3 [3] | Treatment related adverse event: Nausea, Grade ≥ 3 [3] | Treatment related adverse event: Neuropathy peripheral, Grade ≥ 3 [3] | Treatment related adverse event: Pruritus, Grade ≥ 3 [3] | Treatment related adverse event: Vomiting, Grade ≥ 3 [3] | Treatment related adverse event: Alopecia, Grade ≥ 3 [6] | Treatment related adverse event: Anemia, Grade ≥ 3 [6] | Treatment related adverse event: Fatigue, Grade ≥ 3 [6] | Treatment related adverse event: Flushing, Grade ≥ 3 [6] | Treatment related adverse event: Headache, Grade ≥ 3 [6] | Treatment related adverse event: Infusion related reaction, Grade ≥ 3 [6] | Treatment related adverse event: Nausea, Grade ≥ 3 [6] | Treatment related adverse event: Neuropathy peripheral, Grade ≥ 3 [6] | Treatment related adverse event: Pruritus, Grade ≥ 3 [6] | Treatment related adverse event: Vomiting, Grade ≥ 3 [6]
1 pt: DLT: grade 3 hypersensitivity (part B, dosage level B2)
0: Treatment related adverse event: Vomiting, All [1] | Treatment related adverse event: Vomiting, ≥3 [1] | Treatment related adverse event: Alopecia, All [2] | Treatment related adverse event: Alopecia, ≥3 [2] | Treatment related adverse event: Anemia, ≥3 [2] | Treatment related adverse event: Fatigue, ≥3 [2] | Treatment related adverse event: Headache, All [2] | Treatment related adverse event: Headache, ≥3 [2] | Treatment related adverse event: Hypertension, All [2] | Treatment related adverse event: Hypertension, ≥3 [2] | Treatment related adverse event: Nausea, ≥3 [2] | Treatment related adverse event: Neuropathy peripheral, All [2] | Treatment related adverse event: Neuropathy peripheral, ≥3 [2] | Treatment related adverse event: Respiratory tract infection, All [2] | Treatment related adverse event: Respiratory tract infection, ≥3 [2] | Treatment related adverse event: Thrombocytopenia, ≥3 [2] | Treatment related adverse event: Vomiting, All [2] | Treatment related adverse event: Vomiting, ≥3 [2] | Treatment related adverse event: Alopecia, All [4] | Treatment related adverse event: Alopecia, ≥3 [4] | Treatment related adverse event: Anemia, ≥3 [4] | Treatment related adverse event: Fatigue, ≥3 [4] | Treatment related adverse event: Flushing, ≥3 [4] | Treatment related adverse event: Headache, ≥3 [4] | Treatment related adverse event: Nausea, ≥3 [4] | Treatment related adverse event: Neuropathy peripheral, ≥3 [4] | Treatment related adverse event: Vomiting, ≥3 [4] | Treatment related adverse event: Alopecia, ≥3 [5] | Treatment related adverse event: Anemia, ≥3 [5] | Treatment related adverse event: Fatigue, ≥3 [5] | Treatment related adverse event: Headache, ≥3 [5] | Treatment related adverse event: Nausea, ≥3 [5] | Treatment related adverse event: Neuropathy peripheral, ≥3 [5] | Treatment related adverse event: Vomiting, ≥3 [5] | DLTs (Cohort 3: A-2 120 mg/m^2 + Carboplatin AUC 4 mg/mL·min, 3/3 evaluable)
5 (26.3) n (%): Treatment related adverse event: Any Event, Grade ≥ 3 [6]
7: Treatment related adverse event: Nausea, All [5] | Treatment related adverse event: Neutropenia, All [5] | Treatment related adverse event: Thrombocytopenia, All [5]
5 pts: Grade 3/4-related AEs (part B across the various DLs)
3 (100) n (%): Treatment related adverse event: Anemia, All Grades [3] | Treatment related adverse event: Any Event, All Grades [3] | Treatment related adverse event: Nausea, All Grades [3] | Treatment related adverse event: Neutropenia, All Grades [3] | Treatment related adverse event: Thrombocytopenia, All Grades [3]
1 (acute: DLTs (Cohort 2: A-2 120 mg/m^2 + Carboplatin AUC 5 mg/mL·min, 3/3 evaluable, acute hypersensitivity)
4 (21.1) n (%): Treatment related adverse event: Neutropenia, Grade ≥ 3 [6]
8 (42.1) n (%): Treatment related adverse event: Neutropenia, All Grades [6]

Reference: US20230106592A1, “METHOD FOR TREATING CANCER USING A COMBINATION OF DNA DAMAGING AGENTS AND ATR INHIBITORS” (Vertex Pharmaceuticals Incorporated, priority 2015, published 2023)
